Values after ≈ are worked out from the molar mass of the structure shown. Read-outs that look alike come from different tables or passages of the source. Blank lines part the entries; values can stand above or below the compound they belong to.
Experiments:
[1] = test system: gram positive bacteria and gram negative bacteria; assay: antibacterial activity (general statements, standard dilution tests); format: cell-based; conditions: gram negative organisms resistant to the 5-hydroxy precursors
Streptococcus pyogenes C = assay: in vitro minimal inhibitory concentration, standard tube dilution method; format: cell-based
Source text: In Table 1, set forth below is shown the in vitro minimal inhibitory concentration (MIC) of gentamicin C2a against representative gram-positive and gram-negative bacteria. The results are derived using the standard tube dilution method in Mueller-Hinton broth.
In Table 2, set forth below is shown the in vitro minimal inhibitory concentration (MIC) of gentamicin C2b against representative gram-positive and gram-negative bacteria. The results are derived using the standard tube dilution method in Mueller-Hinton broth.

[2] = test system: gram-positive and gram-negative bacteria; assay: in vitro antibacterial spectrum / activity compared with gentamicin C components; format: cell-based; conditions: as the free base
[3] = acute intravenous toxicity; conditions: mouse, in vivo, male CF-1 mice weighing 20 grams each

SMILES: CNC1C(O)C(OC2C(N)CC(N)C(OC3OC(CN)CCC3N)C2N)OCC1(C)O (stereo not drawn) [5-epi-amino-5-deoxygentamicin C1a]
cidal activity [1]: cidal against certain gram negative organisms which are resistant to the 5-hydroxy precursors

SMILES: CN[C@@H]1[C@@H](O)[C@@H](O[C@@H]2[C@@H](O)[C@H](O[C@H]3O[C@H]([C@H](C)N)CC[C@H]3N)[C@@H](N)C[C@H]2N)OC[C@]1(C)O [gentamicin C2a]
MIC (Streptococcus pyogenes C): 7.5 µg/mL (≈ 16.2 µM) | activity relative to the gentamicin "C" complex [2]: about 74% | LD50 [3]: 110 mg/kg

MIC (Streptococcus pyogenes C; Mueller-Hinton broth, read-out: MIC): 3 µg/mL (≈ 6.47 µM)
SMILES: CNC[C@@H]1CC[C@@H](N)[C@@H](O[C@H]2[C@H](O)[C@@H](O[C@H]3OC[C@](C)(O)[C@H](NC)[C@H]3O)[C@H](N)C[C@@H]2N)O1 [gentamicin C2b]
